# Source: publication PMC5146859, “Phase 1/2 study of pacritinib, a next generation JAK2/FLT3 inhibitor, in myelofibrosis or other myeloid malignancies” (Journal of Hematology & Oncology, 2016)
# Tests used:
# [1] = test system: patients with advanced myeloid malignancies (MF, AML); assay: Phase 1 clinical benefit rate (IWG criteria); format: in vivo, human
# Experimental: At screening/baseline, patients underwent a medical history, physical examination, vital sign assessment, ECOG PS assessment, electrocardiogram, and assessment of hematologic parameters and blood chemistry. Hematology/blood chemistry, physical examinations, and vital sign assessments were performed throughout treatment. Toxicity was assessed using the National Cancer Institute Common Terminology Criteria for Adverse Events (NCIC-CTCAE), version 3.0, with relationship to treatment assigned by the investigator and were recorded from the first dose of pacritinib until 30 days after the last dose. Bone marrow biopsy and/or aspirate samples were drawn at baseline, on day 1 of cycle 4 and cycle 10, as clinically indicated, and at the termination visit. Disease response and progression were determined using the relevant International Working Group (IWG) criteria. The primary objective of phase 1 was to establish the MTD of pacritinib in patients with advanced myeloid malignancies, defined as the highest dose level at which no more than one out of six patients in the cohort experienced a DLT during cycle 1 ([…]) of therapy. […] Secondary objectives in phase 1 of the study included safety and PK analysis. Clinical benefit rate was assessed as an exploratory endpoint, defined as the proportion of patients who experienced a complete response, partial response, clinical improvement, or stable disease (SD) during the study.
# patients with MF = assay: Phase 2 spleen response (volume by MRI, length by physical examination); format: in vivo, human; settings: phase 2, 400 mg QD
# Experimental: In phase 2, abdominal MRI to assess spleen and liver volume was performed on day 1 of cycles 1, 4, and 7 and then day 1 of every third cycle through cycle 25. Spleen size (length) was also assessed by manual palpation with each scheduled physical examination. The phase 2 study protocol was amended in September 2009 to include the MF Quality of Life and Symptoms Assessment Tool. […] The instrument was administered pre-dose on day 1 of cycles 1, 2, 4, 7, and 10 and then on day 1 of every third cycle through cycle 25.
# The primary endpoint of the phase 2 component was the proportion of the efficacy population who achieved a ≥35% reduction in spleen volume from baseline at week 24, as measured by MRI. Spleen response rate was also assessed in terms of a ≥35% reduction in spleen volume by MRI up to week 24 and end of treatment and as a ≥50% reduction in spleen length by physical examination up to week 24 and end of treatment. Duration of response was not analyzed due to limitations in the proportion of responders. An exploratory endpoint was the proportion of patients with a ≥50% reduction in MF Quality of Life and Symptoms Assessment Tool at week 24 compared with baseline.
# The planned sample size of 29 patients for the phase 2 component provided 80% power to detect a spleen response rate of ≥30% versus the null hypothesis of a response rate of ≤10%, with α = 0.05 (two-sided). The efficacy-evaluable population included those patients with a baseline and corresponding follow-up value. The safety population included all enrolled patients who received ≥1 dose of pacritinib.
structure (smiles),measurement,setting,value
"C1=C/COCc2cc(ccc2OCCN2CCCC2)Nc2nccc(n2)-c2cccc(c2)COC/1 [pacritinib, 11-(2-pyrrolidin-1-yl-ethoxy)-14,19-dioxa-5,7,26-triaza-tetracyclo[19.3.1.1(2,6). 1(8,12)]heptacosa-1(25),2(26),3,5,8,10,12(27),16,21,23-decaene]",Dose–response correlation of clinical benefit,[1]; phase 1,No clear dose–response correlation was observed
same,Overall clinical benefit rate,"[1]; phase 1, n = 43",86.0%
same,Patients achieving clinical improvement,"[1]; phase 1, n = 43",13 patients
same,Patients having stable disease,"[1]; phase 1, n = 43",24 patients
same,Clinical benefit rate,"[1]; phase 1, patients with AML (3/7)",42.9%
same,Clinical benefit rate,"[1]; phase 1, patients with MF (34/36)",94.4%
same,Evaluable patients achieving ≥35% spleen volume reduction by MRI (primary endpoint),patients with MF; at week 24 (4/17),23.5%
same,Patients achieving ≥50% spleen length reduction by physical examination,patients with MF; at week 24 (9/19),47.4%
same,Patients achieving ≥35% spleen volume reduction by MRI,patients with MF; up to end of treatment (7/23),30.4%
same,Patients achieving ≥50% spleen length reduction by physical examination,patients with MF; up to end of treatment (12/31),38.7%
